Source: US4593090A, “Novel nitrosourea compounds, method for preparing same, and pharmaceutical composition containing same” (Gogo Kimura, priority 1981, dated 1986)
Where two headings read alike, the source gives them in different places.

Assays:
[1] = test system: Leukemia L1210; experiment: Activity against Leukemia L1210, intraperitoneal, increase in life span of mice; format: in vivo, female mice (BDF1 family); conditions: for ED (maximum ILS) / ED30: Mus musculus, L1210, ip; for ED (maximum ILS) / ED30 / O.D. (optimum dosage) / ILS30: ip once a day for 5 successive days; for ED (maximum ILS) / O.D. (optimum dosage): daily dosage giving maximum increase of life span; for ED (maximum ILS): read-out: O.D. (optimum dosage); for ED30 / ILS30: daily dosage increasing average survival days by 30%; for ED30: read-out: ILS30; for Survivors after 60 days / Max. ILS % / Therapeutic ratio TR: ip; for Survivors after 60 days: 6-membered group; for Max. ILS %: 60-day observation, versus control; for Therapeutic ratio TR: O.D./ILS30
Procedure, shortened: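 Dosing started 24 h after ip implantation of 1×10^5 L1210 cells into groups of 6 female BDF1 mice, by ip or oral route daily for 5 consecutive days. Survival was followed for 60 days; increase in life span was scored against untreated mice, with therapeutic ratio from optimum dose over ILS30 dose.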

[2] = Acute toxicity (LD50, Behrens-Karber method); format: in vivo, ICR mice; conditions: ip, mortality during 30 days; for LD50 at 720 h: mouse, in vivo; for LD50: 43200 min
Protocol: Test compounds, dissolved or suspended in 0.5% aqueous CMC, were each intraperitoneally administered to ICR mice in a dose of 0.1 ml per 10 g body weight. LD50 (mg/kg) value of each test compound was calculated from the mortality of mice during 30 days by the Behrens-Karber method.

[3] = test system: Ehrlich acites carcinoma; experiment: Growth-inhibiting effect against Ehrlich acites carcinoma; format: in vivo, male mice; conditions: Mus musculus, Ehrlich, 120 h, 5 days; for response vs control in vivo at 50 mg/kg: 50 mg/kg/day ip; for response vs control in vivo at 200 mg/kg: 200 mg/kg/day ip; for response vs control in vivo at 25 mg/kg: 25 mg/kg/day ip; for response vs control in vivo at 100 mg/kg: 100 mg/kg/day ip
Protocol: Ehrlich acites carcinoma (1×10^7 cells) was implantated into the abdominal cavities of a 6-membered group of male mice. Test compounds (solutions or suspensions in 1% Nikohl HCO-60) were each intraperioneally administered once a day 5 successive days to the mice 24 hrs. after the implantation. Total packed cell volumes [TPCV, namely, total packed volumes of Acites carcinoma] were determined 7 days after the implantation to calculate growth ratio of tumor [T/C%; T: packed volume of Acites carcinoma in treated groups, C: packed volume of Acites carcinoma in an untreated group]. Acitivity is represented by - when T/C% is 100-66, by + when T/C% 65-41, by ++ when T/C% 40-11, and by +++ when T/C% 10-0.

CCCCO[C@H]1O[C@H](CN(C)C(=O)N(CCCl)N=O)[C@@H](O)[C@H](O)[C@H]1O [Compound 3, 3-methyl-3-(n-butylα-D-glucopyranose-6-yl)-1-(2-chloroethyl)-1-nitrosourea]
ED (maximum ILS) [1]: 90 mg/kg
ED30 [1]: 2.7 mg/kg
Survivors after 60 days [1]: 6/6
Max. ILS % [1]: > 700%
Therapeutic ratio TR [1]: 33.3
LD50 at 720 h [2]: 260 mg/kg
response vs control in vivo at 50 mg/kg ([3]; read-out: Activity): 11 to 40%
response vs control in vivo at 50 mg/kg ([3]; read-out: T/C %): 22.4%
response vs control in vivo at 200 mg/kg ([3]; read-out: Activity): 0 to 10%
response vs control in vivo at 200 mg/kg ([3]; read-out: T/C %): 0%

CCCCO[C@H]1O[C@H](CN(CCOCCO)C(=O)N(CCCl)N=O)[C@@H](O)[C@H](O)[C@H]1O [Compound 12, 3-[2-(2-hydroxyethoxy)ethyl]-3-(n-butyl α-D-glucopyranose-6-yl)-1-(2-chloroethyl)-1-nitrosourea]
ED (maximum ILS) [1]: 170 mg/kg
ED30 [1]: 2.85 mg/kg
Survivors after 60 days [1]: 6/6
Max. ILS % [1]: > 700%
Therapeutic ratio TR [1]: 59.6
LD50 at 720 h [2]: 505 mg/kg
response vs control in vivo at 25 mg/kg ([3]; read-out: Activity): 0 to 10%
response vs control in vivo at 25 mg/kg ([3]; read-out: T/C %): 0%
response vs control in vivo at 100 mg/kg ([3]; read-out: Activity): 0 to 10%
response vs control in vivo at 100 mg/kg ([3]; read-out: T/C %): 0%

CCC(C)O[C@H]1O[C@H](CN(C(=O)N(CCCl)N=O)C(C)CO)[C@@H](O)[C@H](O)[C@H]1O (stereo partly drawn) [Compound 20, 3-(2-hydroxy-1-methylethyl)-3-(sec-butyl α-D-glucopyranose-6-yl)-1-(2-chloroethyl)-1-nitrosourea]
ED (maximum ILS) [1]: 170 mg/kg
ED30 [1]: 3.92 mg/kg
Survivors after 60 days [1]: 4/6
Max. ILS % [1]: > 430%
Therapeutic ratio TR [1]: 43.4
LD50 at 720 h [2]: 560 mg/kg
response vs control in vivo at 25 mg/kg ([3]; read-out: Activity): 0 to 10%
response vs control in vivo at 25 mg/kg ([3]; read-out: T/C %): 0%
response vs control in vivo at 100 mg/kg ([3]; read-out: Activity): 0 to 10%
response vs control in vivo at 100 mg/kg ([3]; read-out: T/C %): 0%

CCCCN(C[C@H]1O[C@H](OCCCOC)[C@H](O)[C@@H](O)[C@@H]1O)C(=O)N(CCCl)N=O [Compound 30, 3-n-butyl-3-(3-methoxy-n-propyl-α-D-glucopyranose-6-yl)-1-(2-chloroethyl)-1-nitrosourea]
ED (maximum ILS) [1]: 150 mg/kg
ED30 [1]: 2.61 mg/kg
Survivors after 60 days [1]: 6/6
Max. ILS % [1]: > 700%
Therapeutic ratio TR [1]: 57.5
LD50 at 720 h [2]: 450 mg/kg
response vs control in vivo at 25 mg/kg ([3]; read-out: Activity): 0 to 10%
response vs control in vivo at 25 mg/kg ([3]; read-out: T/C %): 0%
response vs control in vivo at 100 mg/kg ([3]; read-out: Activity): 0 to 10%
response vs control in vivo at 100 mg/kg ([3]; read-out: T/C %): 0%

COCCCO[C@H]1O[C@H](CN(CC(C)C)C(=O)N(CCCl)N=O)[C@@H](O)[C@H](O)[C@H]1O [Compound 31]
ED (maximum ILS) [1]: 170 mg/kg
ED30 [1]: 2.65 mg/kg
Survivors after 60 days [1]: 6/6
Max. ILS % [1]: > 700%
Therapeutic ratio TR [1]: 64.2
LD50 at 720 h [2]: 505 mg/kg
response vs control in vivo at 25 mg/kg ([3]; read-out: Activity): 0 to 10%
response vs control in vivo at 25 mg/kg ([3]; read-out: T/C %): 0%
response vs control in vivo at 100 mg/kg ([3]; read-out: Activity): 0 to 10%
response vs control in vivo at 100 mg/kg ([3]; read-out: T/C %): 0%

CCOCCN(C[C@H]1O[C@H](OC2CCCCC2)[C@H](O)[C@@H](O)[C@@H]1O)C(=O)N(CCCl)N=O [Compound 40, 3-(2-ethoxyethyl)-3-(cyclohexyl α-D-glucopyranose-6-yl)-1-(2-chloroethyl)-1-nitrosourea]
ED (maximum ILS) [1]: 170 mg/kg
ED30 [1]: 2.66 mg/kg
Survivors after 60 days [1]: 6/6
Max. ILS % [1]: > 700%
Therapeutic ratio TR [1]: 63.9
LD50 at 720 h [2]: 545 mg/kg
response vs control in vivo at 25 mg/kg ([3]; read-out: Activity): 0 to 10%
response vs control in vivo at 25 mg/kg ([3]; read-out: T/C %): 0%
response vs control in vivo at 100 mg/kg ([3]; read-out: Activity): 0 to 10%
response vs control in vivo at 100 mg/kg ([3]; read-out: T/C %): 0%

COC(C)CN(C[C@H]1O[C@H](OC2CCCCC2)[C@H](O)[C@@H](O)[C@@H]1O)C(=O)N(CCCl)N=O (stereo partly drawn) [Compound 41, 3-(2-methoxy-n-propyl)-3-(cyclohexyl α-D-glucopyranose-6-yl)-1-(2-chloroethyl)-1-nitrosourea]
ED (maximum ILS) [1]: 180 mg/kg
ED30 [1]: 2.72 mg/kg
Survivors after 60 days [1]: 6/6
Max. ILS % [1]: > 700%
Therapeutic ratio TR [1]: 66.2
LD50 at 720 h [2]: 580 mg/kg
response vs control in vivo at 25 mg/kg ([3]; read-out: Activity): 0 to 10%
response vs control in vivo at 25 mg/kg ([3]; read-out: T/C %): 0%
response vs control in vivo at 100 mg/kg ([3]; read-out: Activity): 0 to 10%
response vs control in vivo at 100 mg/kg ([3]; read-out: T/C %): 0%

O=NN(CCCl)C(=O)N(CC1CCCO1)C[C@H]1O[C@H](OC2CCCCC2)[C@H](O)[C@@H](O)[C@@H]1O (stereo partly drawn) [Compound 50, 3-tetrahydrofurfuryl-3-(cyclohexyl α-D-glucopyranose-6-yl)-1-(2-chloroethyl)-1-nitrosourea]
ED (maximum ILS) [1]: 150 mg/kg
ED30 [1]: 2.31 mg/kg
Survivors after 60 days [1]: 6/6
Max. ILS % [1]: > 700%
Therapeutic ratio TR [1]: 64.9
LD50 at 720 h [2]: 450 mg/kg
response vs control in vivo at 25 mg/kg ([3]; read-out: Activity): 0 to 10%
response vs control in vivo at 25 mg/kg ([3]; read-out: T/C %): 0%
response vs control in vivo at 100 mg/kg ([3]; read-out: Activity): 0 to 10%
response vs control in vivo at 100 mg/kg ([3]; read-out: T/C %): 0%

CC(C)(C)CN(C[C@H]1O[C@H](OCC2CCCO2)[C@H](O)[C@@H](O)[C@@H]1O)C(=O)N(CCCl)N=O (stereo partly drawn) [Compound 194, 3-neopentyl-3-(tetrahydrofurfuryl α-D-glucopyranose-6-yl)-1-(2-chloroethyl)-1-nitrosourea]
O.D. (optimum dosage) [1]: 160 mg/kg
ILS30 [1]: 2.56 mg/kg
Survivors after 60 days [1]: 6/6
Max. ILS % [1]: > 700%
Therapeutic ratio TR [1]: 62.6
LD50 [2]: 560 mg/kg

CCC(COC)O[C@H]1O[C@H](CN(CC(C)(C)C)C(=O)N(CCCl)N=O)[C@@H](O)[C@H](O)[C@H]1O (stereo partly drawn) [Compound 196, 3-neopentyl-3-(1-methoxy-sec-butyl α-D-glucopyranose-6-yl)-1-(2-chloroethyl)-1-nitrosourea]
O.D. (optimum dosage) [1]: 160 mg/kg
ILS30 [1]: 2.52 mg/kg
Survivors after 60 days [1]: 6/6
Max. ILS % [1]: > 700%
Therapeutic ratio TR [1]: 63.4
LD50 [2]: 560 mg/kg

CC(C)CN(C[C@H]1O[C@@H](OCCN2CCOCC2)[C@H](O)[C@@H](O)[C@@H]1O)C(=O)N(CCCl)N=O [Compound 199, 3-isobutyl-3-(2-morpholinoethyl β-D-glucopyranose-6-yl)-1-(2-chloroethyl)-1-nitrosourea]
ED (maximum ILS) [1]: 160 mg/kg
ED30 [1]: 3.2 mg/kg
Survivors after 60 days [1]: 6/6
Max. ILS % [1]: > 700%
Therapeutic ratio TR [1]: 50.0
LD50 at 720 h [2]: 520 mg/kg

CC(C)(C)N(C[C@H]1O[C@H](OC(c2ccccc2)C2CC2)[C@H](O)[C@@H](O)[C@@H]1O)C(=O)N(CCCl)N=O (stereo partly drawn) [Compound 201, 3-tert-butyl-3-(α-cyclopropylbenzyl α-D-glucopyranose-6-yl)-1-(2-chloroethyl)-1-nitrosourea]
ED (maximum ILS) [1]: 150 mg/kg
ED30 [1]: 4.78 mg/kg
Survivors after 60 days [1]: 6/6
Max. ILS % [1]: > 700%
Therapeutic ratio TR [1]: 31.4
LD50 at 720 h [2]: 460 mg/kg

CO[C@H]1O[C@H](CO)[C@@H](O)[C@H](NC(=O)N(CCCl)N=O)[C@H]1O [KCNUM, 3-(methyl α-D-glucopyranose-3-yl)-1-(2-chloroethyl)-1-nitrosourea, reference compound]
ED (maximum ILS) [1]: 25.4 mg/kg
ED30 [1]: 1.38 mg/kg
Survivors after 60 days [1]: 4/6
Max. ILS % [1]: > 425%
Therapeutic ratio TR [1]: 18.4
LD50 at 720 h [2]: 130 mg/kg
